Reference: patent publication US20210115000A1, “NILE RED DERIVATIVES FOR IMPROVED RATIOMETRIC IMAGING FOR NERVE SPECIFIC CONTRAST” (Oregon Health & Sciences University, priority 2018, published 2021)
Entries after “also recorded” stand apart in the source; their conditions may differ.

How the values were obtained:
[1] = test system: CD-1 mouse sciatic nerve and surrounding muscle and adipose tissues; assay: Ex vivo tissue section staining, imaging and fluorescence quantification; conditions: for tissue fluorescence intensity, region of interest analysis / tissue staining specificity on mouse tissue sections: 100 μM, 40 min; for tissue fluorescence intensity, region of interest analysis: n=4 tissue sections; for tissue staining specificity on mouse tissue sections: sections with nerve, muscle, adipose; for adipose to muscle ratio: ex vivo tissue sections, vs control autofluorescence
Protocol: Cryosections of CD-1 mouse sciatic nerve and surrounding muscle and adipose tissues from unrelated experiments were cut from optimal cutting temperature (OCT, Fisher Scientific, Hampton, N.H.) embedded frozen tissues. Cryosectioned tissues were captured on superfrost plus slides (Fisher Scientific) at 10 μm thickness. The tissue sections were washed with 1×PBS for 2 minutes to remove OCT, and then fixed with 2% PFA for 15 mins. The tissue sections were then washed with 0.1% Tween 20 in 1×PBS (3×5 mins), followed by incubation with 100 μM of Nile Red and each Nile Red derivative formulated using 10% DMSO, 5% Kolliphore (Sigma Aldrich, St. Louis, Mo.), 63.75% FBS, and 21.25% 1× PBS as previously described.^26 Tissue sections were incubated with the formulated fluorophores for 40 minutes at room temperature, followed by washing with blank formulation not containing fluorophore (2×5 mins). Each tissue section was then washed with 1×PBS (2×5 mins), fixed for 15 minutes using 2% PFA, followed by a final wash with 1×PBS for 5 mins before mounting in glycerol (Fisher Scientific). Images were collected at an exposure time of 650 ms for all Nile Red and Nile Red derivative stained sections. Four tissue sections were stained for Nile Red and each Nile Red derivative, facilitating adipose to muscle and adipose to nerve contrast ratio quantification where tissue intensities were quantified using region of interest analysis with custom written MatLab code (The MathWorks, Natick, Mass.). For each tissue type, a representative area was selected, where a threshold based mask was set to determine tissue from background. The mean tissue intensity was calculated in adipose, nerve and muscle tissues as the intensity per second and used to calculate the adipose to nerve and adipose to muscle contrast ratios. All ex vivo and cellular fluorescence and white light images were collected using a Zeiss AxioObserver inverted fluorescence microscope (Carl Zeiss, Oberkochen, Germany). All cell images were collected at 40× magnification and all tissue section images were collected at 10× magnification. Fluorescence excitation was completed using a Photofluor II broad band light source (89 North, Burlington, Vt.) filtered with a 545±12.5 nm bandpass excitation filter. Fluorescence images were collected using a 605±35 nm bandpass emission filter and a AxioCam 506 monochromo camera (Zeiss). All Filters were Purchased from Chroma Technologies (Bellows Falls, Vt.).

[2] = Spectroscopic analysis: absorbance, emission and quantum yield of Nile Red derivatives; assay type: physicochemical
Protocol: Tandem liquid chromatography mass spectroscopy (LCMS) analysis (Agilent 1260 LC system with a 6224 time of flight (TOF) MS, Agilent, Santa Clara, Calif.) was performed using a 2.7 micron C18 column (4.6×50 mm, Agilent). High performance liquid chromatography (HPLC) purification (Agilent 1260 system with a preparative pump) was performed using a 5 micron C18 column (21.2×150 mm, Agilent). For both HPLC and LCMS, the mobile phase consisted of HPLC grade acetonitrile and water, treated with 0.1% formic acid. Spectroscopic analysis was performed on a Spectramax M5 spectrometer (Molecular Devices, Sunnyvale, Calif.) using a quartz cuvette with a 1 cm pathlength. Quantum yield was calculated according to equation (1).
Where Ø is the quantum yield, F is the integrated fluorescence intensity, f is the absorbance at the excitation wavelength and n is the refractive index of the solvent. S refers to the quantum yield standard (Rhodamine B)^25 and X refers to the unknown sample.

[3] = test system: nerve, adipose and muscle tissue at nerve sites; assay: In vivo co-staining with Oxazine 4, ratiometric imaging and ROC curve analysis; parameters: species or system male CD-1 mice; conditions: for ROC AUC of nerve-to-muscle contrast, change: 30 min after staining compared to immediately following staining
Description: In vivo images were acquired using a previously published, custom-built small animal fluorescence imaging system, described briefly here.^27 Fluorescent images were obtained using a Qimaging EXi Blue monochrome camera (Surrey, British Columbia, CA) with a removable Bayer mask for collection of co-registered color and fluorescence images. A Photofluor II broad band light source (89 North) was expanded onto the surgical field through a liquid light guide and used unfiltered for white light illumination. Nile Red and NR5 were excitated using a 545 t 12.5 nm bandpass filter, while fluorescence emission images were collected with a 605±35 nm bandpass filter. Oxazine 4 (Exciton, West Chester, Ohio) was used for nerve and adipose co-staining and ratiometic imaging studies. Oxazine 4 was excited using a 620±30 nm bandpass filter, while fluorescence emission images were collected through a 700±37.5 nm bandpass filter. Approval for the use of animals in the study was obtained from the Institutional Animal Care and Use Committee (IACUC) at Oregon Health and Science University (OHSU). In vivo staining studies were carried out on male CD-1 mice using an optimized direct/topical administration protocol.^2 Staining was performed concurrently on no more than two nerve sites (sciatic nerve or brachial plexus) per mouse. Nile Red and all Nile Red derivatives were formulated in a previously published co-solvent formulation (10% DMSO, 5% Kolliphor, 63.75% serum and 21.25% PBS^14) at a final concentration of 100 μM. Each formulated fluorophore was incubated for 5 minutes on the nerve site (n=4 nerve sites/fluorophore), followed by 9 short flushes with PBS. The nerve site was then incubated with blank co-solvent not containing fluorophore for 5 minutes, followed again by 9 short flushes with PBS. In vivo co-staining was completed with (1) Nile Red and Oxazine 4 as well as (2) NR5 and Oxazine 4. For these studies, co-solvent formulated Oxazine 4 ([…]) was incubated on the nerve site for 5 minutes followed by 9 short flushes with PBS. The co-solvent formulated Nile Red or NR5 (100 μM) was then incubated on the nerve site for 5 minutes and also followed by 9 short flushes with PBS. Co-registered (1) Nile Red and Oxazine 4 or (2) NR5 and Oxazine 4 images were collected from n=4 nerve sites per groups (1) and (2). Ratiometric images were calculated and quantified using region of interest analysis on the white light images to identify the nerve, adipose and muscle tissue types. Due to the known cross talk of Oxazine 4 into the Nile Red channel,^2 the Oxazine 4 image was subtracted from the Nile Red or NR5 image resulting in an image of only adipose. The ratiometric images were then calculated as the Oxazine 4 image minus the corrected Nile Red or NR5 image divided by the corrected Nile Red or NR5 image. Receiver Operator Characteristic (ROC) curve analysis was performed to assess differences between the ratiometric images, where the area under the curve (AUC) was used as the metric to differentiate between groups (1) and (2) using custom written MatLab code.^28

Compound | tissue fluorescence intensity, region of interest analysis [1] | tissue staining specificity on mouse tissue sections [1] | adipose to muscle ratio [1] | Max Abs ([2]; in DMSO) [nm] | Max Em ([2]; in DMSO) [nm] | Stokes Shift ([2]; in DMSO) [nm] | QY (quantum yield) ([2]; in DMSO, standard Rhodamine B) | ROC AUC of nerve-to-muscle contrast, change [3] | z-score, nerve-to-muscle contrast ([3]; NR5 and oxazine 4 costaining versus oxazine 4 alone, 30 min after staining) | z-score, nerve-to-muscle contrast ([3]; NR5 costaining with oxazine 4 compared to Nile Red costaining with oxazine 4, 30 min after staining) | z-score, nerve-to-adipose contrast ([3]; NR versus NR5 costaining with oxazine 4, 30 min after staining) | z-score, nerve-to-adipose contrast ([3]; NR versus NR5 costaining with oxazine 4, first time point (immediately after staining implied)) | z-score, nerve-to-muscle contrast ([3]; NR versus NR5 costaining with oxazine 4, immediately following staining) | ROC AUC nerve contrast ([3]; costaining with Oxazine 4, 30 minutes post direct administration) | ROC AUC nerve contrast ([3]; costaining with Oxazine 4, immediately following direct administration) | z-score, nerve-to-adipose contrast ([3]; oxazine 4 only staining versus NR5 costaining with oxazine 4, 30 min after staining) | z-score, nerve-to-adipose contrast ([3]; oxazine 4 only staining versus NR5 costaining with oxazine 4, first time point (immediately after staining implied)) | z-score, nerve-to-muscle contrast ([3]; oxazine 4 only staining versus NR5 costaining with oxazine 4, immediately following staining) | absorbance maximum ([2]; in toluene) [nm] | emission maximum ([2]; in toluene) [nm]
CCN(CC)c1ccc2nc3c4ccc(-c5ccc(C#N)cc5)cc4c(=O)cc-3oc2c1 [NR5, 4-(9-(diethylamino)-5-oxo-5H-benzo[a]phenoxazin-3-yl)benzonitrile] | strong nerve and adipose fluorescence staining; also recorded: substantially higher adipose, nerve and muscle tissue fluorescence | adipose specificity; also recorded: brightest overall tissue staining compared to the other Nile Red derivatives | increased contrast over control autofluorescence adipose to muscle ratio; also recorded: highest contrast ratios | 560 | 640 | 80 | 0.54 | little change | -21.32 | 99.96 | 98.20 | 25.26 | 21.87 | improved nerve to adipose and nerve to muscle contrast ratios; also recorded: significantly higher nerve-to-adipose contrast | slightly improved values | 16.12 | 28.63 | 15.22 |  | 
CCN(CC)c1ccc2nc3c4ccccc4c(=O)cc-3oc2c1 [Nile Red] | strong nerve and adipose fluorescence staining; also recorded: highest overall tissue fluorescence | adipose specificity | increased contrast over control autofluorescence adipose to muscle ratio; also recorded: highest contrast ratios | 550 | 630 |  |  | substantial drop in AUC value |  |  |  |  |  |  |  |  |  |  | 520 | 570
